# Assay results taken from article PMC11133381, “Necroptosis induced by ruthenium (II) complexes as mitochondrial disruptors” (Cell Death Discovery, 2024).
# Legend:
# HT29 cells [1] = test: Drug combination study (IC50, combination index, CompuSyn); format: cell-based, human; conditions: combinations at 1:1 ratio
# Experimental: In drug combination studies, cells were incubated with TRZ2 combined with 5-fluorouracil (5-FU), oxaliplatin (OXA), and irinotecan (IRI) chemotherapeutics (kindly provided by Hospital Santa Maria, Lisbon, Portugal) at a ratio of 1:1. The effect of combined treatments was evaluated using the CompuSyn software 1.0 (ComboSyn, Inc. and PD Science, LLC). Briefly, the combination index (CI) is a tool to analyze the interaction between drugs allowing to distinguish between synergistic, additive, and antagonistic effects. CI values are calculated considering the concentration of drugs in combination to produce a specific effect (Fraction affected—Fa) and the concentration of drugs to produce that same effect individually. The final CI value is calculated by the average of CI values at Fa 50, 75, 90, and 95%. CI value < 1 indicates synergism while a CI value > 1 indicates antagonism. Fa-CI plot between the levels of different fractions affected against the CI values was also created using CompuSyn software to interpret the type of interactions between TRZ2 and chemotherapeutic drugs. The data points below the additivity line (CI = 1) indicate synergism.
# HT29 cells [2] = test: TSZ (TNF-α + Z-VAD + BV6)-induced necroptosis, AK release; format: cell-based, human; conditions: Nec-1 30 μM, GSK872 10 μM, 24 h
# Experimental: As positive control for necroptosis induction, HT29 cells were treated with 20 ng/mL recombinant human TNF-α (#300-01A, PeproTech EC Ltd., London, UK), 10 μM Z-Val-Ala-Asp-fluoromethylketon (Z-VAD-FMK or Z-VAD) pan-caspase inhibitor (#ALX-260-020, Enzo Life Sciences, Farmingdale, NY, USA), and 250 nM BV6 Smac mimetic (#B4653, ApexBio, Houston, USA), L929 cells were treated with 10 ng/mL recombinant murine TNF-α (#315-01 A, PeproTech), and HepG2 cells were treated with 10 μM doxorubicin (DOXO) (#D1515, Sigma-Aldrich). […]
# (§1) For evaluation of cell death and viability, cells were plated in 96-well plates at 5 × 10^3 cells/well for next-day treatments. MTS metabolism was evaluated as an indicator of cell viability using CellTiter 96® AQueous non-radioactive cell proliferation assay (Promega, Madison, WI, USA), according to the manufacturer’s instructions. Changes in absorbance were measured at 490 nm using a GloMax®-MultiDetection System (Promega). General cell death was evaluated using the ToxiLight^TM BioAssay Kit (Lonza Walkersville Inc., Walkersville, MD, USA), by determining the quantities of adenylate kinase (AK) released from cells with permeabilized plasma membranes and present in the extracellular medium. The bioluminescent signals were recorded using also the GloMax®-MultiDetection System.
# HCT116 cells = test: Antiproliferative MTS assay, HCT116 cells, 72 h; format: cell-based, human; conditions: 72 h compound incubation
# Experimental: as §1
# (§2) The primary drug screen was performed using the HCT116 and HT29 cell lines. Cells were seeded in 96-well plates at 5 × 10^3 cells/well and 24 h after, exposed to Ru-TRZ compounds and derivatives at a range of concentrations from 0.012 to 243 μM. Cell proliferation was assessed 72 h later using the MTS assay. As a secondary screen, selected hits were tested using HT29, HepG2, and AML12 wild-type cells seeded in 96-well plates at 5 × 10^3 cells/well. In the following day, cells were exposed to selected compounds at the same range of concentrations for additional 24 h. Cell death was evaluated by the ToxiLight assay. All measurements were performed in duplicate. The half-maximal effective concentration (EC50) and half-maximal inhibitory concentration (IC50) were calculated using the GraphPad Prism Software version 8.0.2 (GraphPad Software, Inc., San Diego, CA, USA) with the log (inhibitor) versus response (variable slope) function.
# HT29 cells [3] = test: Antiproliferative MTS assay, HT29 cells, 72 h; format: cell-based, human; conditions: 72 h compound incubation
# Experimental: as §1, §2
# HT29 cells [4] = test: Cytotoxicity by AK release (ToxiLight), HT29 cells, 24 h; format: cell-based, human
# Experimental: as §1
# (§3) The primary drug screen was performed using the HCT116 and HT29 cell lines. […] Cell proliferation was assessed 72 h later using the MTS assay. […] Cell death was evaluated by the ToxiLight assay. […] The half-maximal effective concentration (EC50) and half-maximal inhibitory concentration (IC50) were calculated using the GraphPad Prism Software version 8.0.2 (GraphPad Software, Inc., San Diego, CA, USA) with the log (inhibitor) versus response (variable slope) function.
# HepG2 cells = test: Cytotoxicity by AK release (ToxiLight), HepG2 cells, 24 h; format: cell-based, human; conditions: 24 h compound incubation
# Experimental: as §1, §3
# AML12 cells = test: Cytotoxicity by AK release (ToxiLight), AML12 hepatocytes, 24 h; format: cell-based, mouse; conditions: 24 h compound incubation
# Experimental: as §1, §3
# HT29 cells [5] = test: Mitochondrial transmembrane potential (JC-1); format: cell-based, human; conditions: 2 h
# Experimental: JC-1 (Sigma-Aldrich) is a cationic dye that represents a reliable fluorescent probe for the assessment of mitochondrial transmembrane potential (ΔΨm). […] HT29 or AML12 cells were plated on a 96-well plate at 5 × 10^3 cells/well and on the next day treated with Ru-TRZ compounds (1 and 5 µM) for 2 h. Carbonyl cyanide m-chlorophenyl hydrazone (CCCP), a mitochondrial depolarizing agent, was used as positive control (200 µM; 4 h). Emitted fluorescence was measured at 530 nm and 590 nm using the GloMax®-MultiDetection System (Promega) and the ratio 590/530 emission intensity was calculated.
# [6] = system: caspase-3/7 activity in HT29 cells; test: Caspase-Glo 3/7 assay; format: cell-based, human; conditions: 10 µM, 24 h, p < 0.001
# Experimental: To determine caspase-3/7 activity, HT29 cells were seeded in 96-well plates at 5 ×10^3 cells/well. Twenty-four hours later, cells were incubated with 10 µM Ru-TRZ, or vehicle control, for additional 24 h. Caspase-3 and -7 activation status was measured using the Caspase-Glo® 3/7 Assay (Promega), according to the manufacturer’s instructions. The luminescent signal was recorded using the GloMax®-MultiDetection System (Promega).
# HT29 cells [7] = test: Mitochondrial ROS production (MitoSOX Red); format: cell-based, human; conditions: 10 µM, 15 min
# Experimental: Mitochondrial superoxide abundance was quantified by fluorometric quantification. Briefly, HT29 or AML12 cells were plated on a 96-well plate at 5 ×10^3 cells/well and on the next day treated with 10 µM Ru-TRZ, or vehicle control, for additional 15 min. MitoSOX™ Red (Invitrogen, Thermo Fisher Scientific) diluted 1:1000 in HBSS was added (100 μL per well) and incubated at 37 °C in a CO2 incubator for 10 min. Cells were then washed with PBS to remove the excess of dye and fluorescence intensity was measured using a Varioskan™ LUX multimode microplate reader (Thermo Scientific) with excitation and emission wavelengths of 510 and 580 nm, respectively. Fluorescence values were normalized by the cell mass content.
# [8] = Homo sapiens, HT-29, 24 h incubation
structure (smiles),measurement,setting,value
"O=c1[nH]cc(F)c(=O)[nH]1 [5-FU, 5-fluorouracil]",IC50,HT29 cells [1]; [8],30000 nM
CC(C)S(=O)(=O)c1ccc2nccc(Nc3ccc4scnc4c3)c2c1 [GSK872],Effect on TSZ-induced cell damage (AK release),HT29 cells [2],significantly decreased TSZ-induced AK release
"CCc1c2c(nc3ccc(OC(=O)N4CCC(N5CCCCC5)CC4)cc13)-c1cc3c(c(=O)n1C2)COC(=O)[C@]3(O)CC [IRI, irinotecan]",IC50,HT29 cells [1]; [8],44000 nM
"CN1C(=O)C(Cc2c[nH]c3ccccc23)NC1=S (centres unmarked) [Nec-1, Necrostatin-1]",Effect on TSZ-induced cell damage (AK release),HT29 cells [2],rescued
"O=C1[O][Pt]2([NH][C@@H]3CCCC[C@H]3[NH]2)[O]C1=O [OX, oxaliplatin]",IC50,HT29 cells [1]; 24 h incubation,10800 nM
CN(N=Nc1ccc(C#N)cc1)C(=O)c1ccccc1.O=S(=O)([O-])C(F)(F)F.[Ru+2].c1cc[cH-]c1.c1ccc(P(CCP(c2ccccc2)c2ccccc2)c2ccccc2)cc1 [TRZ4],IC50,HCT116 cells,0.55 µM
same,IC50,HT29 cells [3],0.23 µM
CN(C)N=Nc1ccc(C#N)cc1.O=S(=O)([O-])C(F)(F)F.c1cc[cH-]c1.c1ccc([P]2(c3ccccc3)CC[P](c3ccccc3)(c3ccccc3)[Ru+2]2)cc1 [TRZ5],IC50,HCT116 cells,0.22 µM
same,IC50,HT29 cells [3],0.31 µM
N#Cc1ccc(NC(=O)CCOCCOCCOCCN)cc1.O=S(=O)([O-])C(F)(F)F.[Ru+2].c1cc[cH-]c1.c1ccc(P(CCP(c2ccccc2)c2ccccc2)c2ccccc2)cc1 [TRZ6],IC50,HCT116 cells,2.42 µM
same,IC50,HT29 cells [3],3.54 µM
CCCC(=O)Nc1ccc(C#N)cc1.O=S(=O)([O-])C(F)(F)F.c1cc[cH-]c1.c1ccc([P]2(c3ccccc3)CC[P](c3ccccc3)(c3ccccc3)[Ru+2]2)cc1 [TRZ7],IC50,HCT116 cells,0.55 µM
same,IC50,HT29 cells [3],0.36 µM
same,Cell death (AK release),"HT29 cells [4]; 10 µM, 24 h, partially reverted by Z-VAD, Nec-1 and GSK872",high levels of cell death
same,EC50,"HT29 cells [4]; AK release, 24 h compound incubation",15200 nM
same,EC50,HepG2 cells,16800 nM
same,EC50,AML12 cells,40200 nM
same,Loss of ΔΨm,"HT29 cells [5]; 1 µM, JC-1, p < 0.05",significant loss of ΔΨm
same,Loss of ΔΨm,"HT29 cells [5]; 5 µM, JC-1, CCCP 200 µM 4 h as positive control",loss of ΔΨm similar to the one induced by CCCP
same,Increase in caspase-3/7 activity,[6],up to 4 fold
same,Increase of mitochondrial ROS,HT29 cells [7],~3 fold
N#Cc1ccc(NC(=O)COCCOCCOCCN=[N+]=[N-])cc1.O=S(=O)([O-])C(F)(F)F.[Ru+2].c1cc[cH-]c1.c1ccc(P(CCP(c2ccccc2)c2ccccc2)c2ccccc2)cc1 [TRZ8],IC50,HCT116 cells,0.46 µM
same,IC50,HT29 cells [3],0.27 µM
